Data set [1] can be described thus: Pharmacokinetic (PK) assay in mice. The data set is classed as in vivo. The conditions noted are these: Balb/c male mice, single intragastric administration, 5 mg/kg, plasma; for AUC(0-t) / AUC(0-inf) / half-life / MRT / Cmax: mouse, po; for AUC(0-t): read-out: Area under curve AUC0-t; for AUC(0-inf): read-out: Area under curve AUC0-∞; for half-life: read-out: Half-life t1/2 (converted); for MRT: read-out: Mean residence time MRT; for Cmax: read-out: Plasma concentration Cmax. Here is the method: 2. Pharmacokinetic (PK) Assay in Mice
The pharmacokinetic test of the preferred examples of the present invention in mice was carried out in Balb/c male mice (Shanghai Jiesijie Laboratory Animal Co., LTD).
Administration mode: single intragastric administration.
Administration dosage: 5 mg/10 ml/kg.
Formulation: 0.5% CMC-Na, ultrasonic dissolution.
Sampling points: 0.5, 1, 2, 4, 6, 8 and 24 hours after administration.
1) 0.1 mL of blood was taken from the orbit, placed in a K2EDTA tube, and centrifuged for 5˜20 min at room temperature at 1000˜3000×g to separate the plasma, which was then stored at −80° C.
2) 160 μL of acetonitrile was added to 40 μL of plasma sample for precipitation, and then the mixture was centrifuged for 5˜20 minutes at 500˜2000×g.
3) 100 μL, of processed supernatant was taken and analyzed by LC/MS/MS assay to determine the concentration of the test compound.
LC-MS/MS Assay: • Liquid chromatography condition: Shimadzu LC-20AD pump • Mass spectrometry condition: AB Sciex API 4000 mass spectrometer • Chromatographic column: phenomenex Gemiu 5 μm C18 50×4.6 mm • Mobile phase: solution A was 0.1% aqueous formic acid solution, and solution B was acetonitrile • Flow rate: 0.8 mL/min • Elution time: 0-3.5 minutes gradient elution
The main parameters were calculated using WinNonlin 6.1.

The target in the next data set is ASK1 kinase (Homo sapiens (Human), UniProt Q99683). In words: ASK1 enzymatic test (TR-FRET). It is filed as biochemical. To be noted: ASK1 kinase activity. Here is the method: In this test, the fluorescence-resonance energy transfer (TR-FRET) method was used to determine the inhibition effect of the test compounds on ASK1 kinase activity, and the half maximal inhibitory concentration IC50 of the compounds on ASK1 kinase activity was obtained.
ASK1 kinase, sequence (Q99683 whole entry): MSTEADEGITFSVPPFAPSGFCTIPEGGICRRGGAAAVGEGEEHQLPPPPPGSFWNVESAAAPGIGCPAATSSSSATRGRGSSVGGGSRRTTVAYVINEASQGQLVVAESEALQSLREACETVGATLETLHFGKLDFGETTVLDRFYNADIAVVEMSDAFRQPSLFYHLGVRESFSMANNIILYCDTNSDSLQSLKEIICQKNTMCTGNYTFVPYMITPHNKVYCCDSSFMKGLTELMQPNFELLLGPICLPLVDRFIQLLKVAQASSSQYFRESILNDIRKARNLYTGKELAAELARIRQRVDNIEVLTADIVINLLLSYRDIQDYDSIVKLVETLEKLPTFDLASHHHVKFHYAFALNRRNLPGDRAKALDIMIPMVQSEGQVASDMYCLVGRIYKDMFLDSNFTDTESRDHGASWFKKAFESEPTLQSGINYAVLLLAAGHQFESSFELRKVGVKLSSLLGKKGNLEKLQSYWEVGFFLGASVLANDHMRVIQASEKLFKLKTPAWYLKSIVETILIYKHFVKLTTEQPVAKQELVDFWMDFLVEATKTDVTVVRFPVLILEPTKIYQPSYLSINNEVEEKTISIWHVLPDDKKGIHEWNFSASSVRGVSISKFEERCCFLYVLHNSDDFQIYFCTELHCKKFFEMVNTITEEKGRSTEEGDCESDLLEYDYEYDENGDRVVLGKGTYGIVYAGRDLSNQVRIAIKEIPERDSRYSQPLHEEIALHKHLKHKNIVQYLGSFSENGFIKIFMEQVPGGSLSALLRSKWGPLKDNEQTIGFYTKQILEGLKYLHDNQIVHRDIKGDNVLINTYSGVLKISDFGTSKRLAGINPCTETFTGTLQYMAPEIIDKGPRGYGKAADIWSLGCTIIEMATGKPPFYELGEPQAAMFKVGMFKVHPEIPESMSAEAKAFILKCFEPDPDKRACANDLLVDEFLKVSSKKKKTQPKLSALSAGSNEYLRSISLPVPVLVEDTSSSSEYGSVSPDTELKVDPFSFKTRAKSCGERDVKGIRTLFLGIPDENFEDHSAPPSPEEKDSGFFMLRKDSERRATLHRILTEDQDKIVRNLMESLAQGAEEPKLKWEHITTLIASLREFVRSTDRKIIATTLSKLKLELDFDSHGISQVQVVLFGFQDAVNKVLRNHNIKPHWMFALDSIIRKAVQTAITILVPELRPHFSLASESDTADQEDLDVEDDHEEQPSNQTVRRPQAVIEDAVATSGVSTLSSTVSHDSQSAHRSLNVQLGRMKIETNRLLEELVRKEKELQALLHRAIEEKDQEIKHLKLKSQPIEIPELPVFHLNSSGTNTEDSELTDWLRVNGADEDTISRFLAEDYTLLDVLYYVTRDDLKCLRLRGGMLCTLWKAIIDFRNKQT
1) 1˜5 μL of ASK1 enzyme solution was added to a 384-well plate, and the final concentration of the enzyme was 0.220 nM.
2) 1˜5 μL of gradient-diluted compound solution was added.
3) 1˜5 μL of a substrate mixture containing substrate polypeptides (final concentration: 100˜5000 nM) and ATP (final concentration: 100˜1000 uM) were added.
4) The mixture was incubated at room temperature for 0.5 to 5 hours.
5) 10 μL of EDTA and test solution containing labeled antibody were added, and the plate was incubated at room temperature for 2 to 24 hours.
6) The fluorescence signal value of each well was determined by a microplate reader at about 615 nm and 665 nm.
7) The inhibition rate was calculated by the fluorescence signal value.
8) The IC50 of the compound was obtained by curve fitting according to the inhibition rate at different concentrations.
For orientation: In TR-FRET formats the signal depends on donor and acceptor labels being close together.

The test system of data set [2] is non-alcoholic steatohepatitis mice induced by HFD (high fat diet)+CCl4. In words: Effect on serum ALT and AST levels of non-alcoholic steatohepatitis mice induced by HFD+CCl4. The data set is classed as in vivo, C57BL/6 mice. Also on record: concentration or dose not given beside the values. The conditions noted are these: oral once a day for 28 days, versus solvent control group. An excerpt:
3. The effect of the compounds of the present invention on the ALT and AST levels of non-alcoholic steatohepatitis mice induced by HFD (high fat diet)+CCl4
The object of this test example is to determine whether the compounds of the present invention can down-regulate the ALT and AST levels in the serum of non-alcoholic steatohepatitis mice or not.
C57BL/6 mice were adaptively fed in a SPF (specific pathogen free) barrier for 3 to 7 days, and then fed with HFD feed with a feeding cycle of 8 weeks. At the fifth week of HFD feeding, the HFD-induced mice were randomly grouped according to body weight, and orally administrated with CCl4 twice a week for 4 weeks. At the day of modeling with CCl4, the test compounds were orally administrated once a day continuously for 28 days. The solvent control group was administrated with the corresponding solvent of the test compounds with an administration volume of 10 mL/kg. The mice were euthanized with CO2 48 hours after the last administration of CCl4, and the non-anticoagulated venous blood was collected from the heart. The whole blood was left to stand at room temperature for at least 30 minutes, and then centrifuged for 5 minutes at 4° C. at 5000 rpm to separate the serum. The serum was dispensed into two portions in 1.5 mL EP tubes, and stored at −80° C. for later use.
The ALT and AST levels in mice serum were determined using the alanine aminotransfease (ALT/GPT) kit and aspartate aminotransferase (AST/GOT) kit. The ALT (or AST) test substrate solution was preheated in a 37° C. incubator; 20 μL of substrate solution were pipetted into a 96-well plate, and 5 μL of serum were pipetted into the 96-well plate as test well. After mixing well, the plate was sealed using a sealing film, and placed into the 37° C. incubator to incubate for 30 min. The ALT (or AST) standard curve was formulated, and 25 μL of which were pipetted into the 96-well plate; 20 μL of […] were pipetted into the 96-well plate as control well; 20 μL of 2,4-dinitrophenylhydrazine solution were added to each well. After mixing well, the plate was sealed using a sealing film, and placed into the 37° C. incubator to incubate for 20 min. 200 μL of 0.4 M NaOH solution were added to each well. The plate was placed on a shaker to shake for 15 min, and then measured on the BioTek Synergy H1 instrument using OD detection program at a wavelength of 510 nm. The absolute OD value was calculated from the OD value of each well. Absolute OD value=OD value of measured well−OD value of control well. The absolute OD value was taken into the standard curve to obtain the ALT (or AST) content of the sample. Samples that exceed the standard curve range should be re-tested after diluting the serum to an appropriate concentration. Data processing: (% ALT reduction rate)=(solvent control group−test compound)/solvent control group×100%; (% AST reduction rate)=(solvent control group−test compound)/solvent control group×100%.

Turning to `Cc1cc(F)c(C(=O)Nc2cccc(-c3nnc4n3C(C)(C)CC4)n2)cc1-n1cnc(C2CC2)c1` [Example 10, 5-(4-Cyclopropyl-1H-imidazol-1-yl)-N-(6-(5,5-dimethyl-6,7-dihydro-5H-pyrrolo[2,1-c][1,2,4]triazol-3-yl)pyridin-2-yl)-2-fluoro-4-methylbenzamide], in data set [1], the Peak time tmax turned out to be 0.5 h, the AUC(0-t) was 32.4 µg·h/mL, the AUC(0-inf) was determined as 32.4 µg·h/mL and the half-life is 1.6 h. Further, in data set [1], the mean residence time MRT – broadly, the average time that molecules of a dose stay in the body – stood at 3 h and the Cmax turned out to be 8.99 µg/mL. Moreover, the IC50 (usually the concentration that gives 50% inhibition) on ASK1 kinase came to 1 nM. Further, in data set [2], the “ALT(U/L) reduction rate (%)” value worked out at 50% and the “AST(U/L) reduction rate (%)” value turned out to be 46%.

As to `Cc1cc(F)c(C(=O)Nc2cccc(-c3nnc4n3[C@H](C)CC4)n2)cc1-n1cnc(C(C)(C)C)c1` [Example 15, (R)-5-(4-(tert-Butyl)-1H-imidazol-1-yl)-2-fluoro-4-methyl-N-(6-(5-methyl-6,7-dihydro-5H-pyrrolo[2,1-c][1,2,4]triazol-3-yl)pyridin-2-yl)benzamide], half-maximal inhibition against ASK1 kinase (IC50) was put at 1.4 nM. Also, in data set [2], the “ALT(U/L) reduction rate (%)” value stood at 54% and the “AST(U/L) reduction rate (%)” value is 58%.

Consider `C=C[C@@H]1CCc2nnc(-c3cccc(NC(=O)c4cc(-n5cnc(C6CC6)c5)c(C)cc4F)n3)n21` [Example 37, (S)-5-(4-Cyclopropyl-1H-imidazol-1-yl)-2-fluoro-4-methyl-N-(6-(5-vinyl-6,7-dihydro-5H-pyrrolo[2,1-c][1,2,4]triazol-3-yl)pyridin-2-yl)benzamide], for which, in data set [1], the Peak time tmax stood at 0.5 h, the AUC(0-t) is 43.9 µg·h/mL, the AUC(0-inf) came to 48 µg·h/mL and the half-life was 2.1 h. Also, in data set [1], the MRT was determined as 3.4 h and the Cmax came out at 11.7 µg/mL. This compound yielded an IC50 on ASK1 kinase of 3.5 nM. Moreover, in data set [2], the “ALT(U/L) reduction rate (%)” value stood at 57% and the “AST(U/L) reduction rate (%)” value was determined as 62%.

Take `Cc1cc(F)c(C(=O)Nc2cccc(-c3nnc4n3[C@H](C(F)(F)F)CC4)n2)cc1-n1cnc(C2CC2)c1` [Example 40, (S)-5-(4-Cyclopropyl-1H-imidazol-1-yl)-2-fluoro-4-methyl-N-(6-(5-(trifluoromethyl)-6,7-dihydro-5H-pyrrolo[2,1-c][1,2,4]triazol-3-yl)pyridin-2-yl)benzamide]: in data set [1], the Peak time tmax is 0.5 h, the AUC(0-t) worked out at 26.8 µg·h/mL, the AUC(0-inf) came to 28.3 µg·h/mL and the half-life is 1.7 h. In data set [1], the MRT is 2.7 h and the Cmax came out at 10.7 µg/mL. Besides, at ASK1 kinase, the IC50 came out at 1.9 nM. In data set [2], the “ALT(U/L) reduction rate (%)” value is recorded as 50% and the “AST(U/L) reduction rate (%)” value is reported as 65%.

`C#C[C@@H]1CCc2nnc(-c3cccc(NC(=O)c4cc(-n5cnc(C6CC6)c5)c(C)cc4F)n3)n21` [Example 43, (S)-5-(4-Cyclopropyl-1H-imidazol-1-yl)-N-(6-(5-ethynyl-6,7-dihydro-5H-pyrrolo[2,1-c][1,2,4]triazol-3-yl)pyridin-2-yl)-2-fluoro-4-methylbenzamide]: in data set [1], the Peak time tmax amounted to 0.5 h, the AUC(0-t) came to 80.9 µg·h/mL, the AUC(0-inf) amounted to 81.9 µg·h/mL and the half-life is 3.9 h. In data set [1], the MRT is 5.3 h and the Cmax is 12.2 µg/mL. The IC50 against ASK1 kinase worked out at 1.9 nM. Moreover, in data set [2], the “ALT(U/L) reduction rate (%)” value is given as 65% and the “AST(U/L) reduction rate (%)” value is 58%.

Turning to `CC[C@@H]1CCc2nnc(-c3cccc(NC(=O)c4cc(-n5cnc(C6CC6)c5)c(C)cc4F)n3)n21` [Example 55, (R)-5-(4-Cyclopropyl-1H-imidazol-1-yl)-N-(6-(5-ethyl-6,7-dihydro-5H-pyrrolo[2,1-c][1,2,4]triazol-3-yl)pyridin-2-yl)-2-fluoro-4-methylbenzamide], in data set [1], the Peak time tmax was determined as 0.5 h, the AUC(0-t) was 31.5 µg·h/mL, the AUC(0-inf) was 31.5 µg·h/mL and the half-life is 1.4 h. In addition, in data set [1], the MRT was determined as 2.9 h and the Cmax worked out at 9.33 µg/mL. The compound further had an IC50 against ASK1 kinase of 1.9 nM. Further, in data set [2], the “ALT(U/L) reduction rate (%)” value stood at 56% and the “AST(U/L) reduction rate (%)” value worked out at 55%.

For `CCC[C@H]1CCc2nnc(-c3cccc(NC(=O)c4cc(-n5cnc(C6CC6)c5)c(C)cc4F)n3)n21` [Example 60, (S)-5-(4-Cyclopropyl-1H-imidazol-1-yl)-2-fluoro-4-methyl-N-(6-(5-propyl-6,7-dihydro-5H-pyrrolo[2,1-c][1,2,4]triazol-3-yl)pyridin-2-yl)benzamide], in data set [1], the Peak time tmax turned out to be 1 h, the AUC(0-t) is 29 µg·h/mL, the AUC(0-inf) is 29.9 µg·h/mL and the half-life is 1.3 h. Moreover, in data set [1], the MRT came out at 2.6 h and the Cmax is 9.18 µg/mL. For the same compound, on ASK1 kinase, the half-inhibitory concentration (IC50) came to 6.6 nM.

On to `Cc1cc2c(cc1-n1cnc(C3CC3)c1)C(=O)N(c1cccc(-c3nnc4n3C3(CC4)CC3)n1)C2` [Example 64, 6-(4-Cyclopropyl-1H-imidazol-1-yl)-2-(6-(6′,7′-dihydrospiro[cyclopropane-1,5′-pyrrolo[2,1-c][1,2,4]triazol]-3′-yl)pyridin-2-yl)-5-methylisoindolin-1-one], for which the IC50 on ASK1 kinase came out at 5.5 nM. Moreover, in data set [2], the “ALT(U/L) reduction rate (%)” value was determined as 51% and the “AST(U/L) reduction rate (%)” value is on record as 47%.

With `Cc1cc2c(cc1-n1cnc(C3CC3)c1)C(=O)N(c1cccc(-c3nnc4n3[C@H](C(F)(F)F)CC4)n1)C2` [Example 65, (S)-6-(4-Cyclopropyl-1H-imidazol-1-yl)-5-methyl-2-(6-(5-(trifluoromethyl)-6,7-dihydro-5H-pyrrolo[2,1-c][1,2,4]triazol-3-yl)pyridin-2-yl)isoindolin-1-one], the IC50 at ASK1 kinase amounted to 9.4 nM. In data set [2], the “ALT(U/L) reduction rate (%)” value stood at 46% and the “AST(U/L) reduction rate (%)” value is reported as 52%.

In the case of `Cc1cc(F)c(C(=O)Nc2cccc(-c3nncn3C(C)C)n2)cc1-n1cnc(C2CC2)c1` [GS-4997, reference compound], in data set [2], the “ALT(U/L) reduction rate (%)” value was determined as 40% and the “AST(U/L) reduction rate (%)” value came to 35%.

The values above are taken from patent US11136324B2, “Substituted imidazoles as apoptosis signal regulating kinase 1 inhibitors” (Jiangsu Hansoh Pharmaceutical Group Co., Ltd., priority 2017, dated 2021).
